Where two headings read alike, the source gives them in different places.
Legend:
ROCK1 [1] = biological target: T1, ROCK1 (Homo sapiens (Human), UniProt Q13464); assay: ROCK1 cellular assay (pMLC T18/S19 immunoblot, MDA-MB-231 cells with doxycycline inducible kinase domain); format: cell-based
Experimental: (§1) MRCKβ, ROCK1 and ROCK2 Cellular Assays
(§2) MDA-MB-231 cells expressing doxycycline inducible ROCK1, ROCK2 or MRCKβ kinase domains were plated at 1.1×10^5 cells per well of a 12 well plate. After 24 hours, cells were treated with 1 μg/ml doxycycline for 18 hours to induce kinase domain expression and then tested over a suitable concentration range with compounds of the invention for 60 minutes. Cells were then washed with PBS and lysed with Tris-SDS lysis Buffer (50 mM Tris-HCl pH7.4, 0.5% (v/v) SDS, 1×PhosStop Inhibitors (04 906 837 001; Roche) and 1×Complete Protease Inhibitors (04 693 124 001; Roche)). Whole cell lysates were clarified by passing through QIAshredder spin columns, separated by SDS-PAGE, and quantitative immunoblotting performed using a LI-COR Odyssey IR scanner to determine pMLC (T18/S19) and α-Tubulin levels.

ROCK1 [2] = biological target: T1, ROCK1; conditions: read-out: ROCK1 Average Ki; 1 μM ATP
Experimental: (§4) MRCKα, MRCKβ, ROCK1 and ROCK2 assays were performed using an IMAP fluorescence polarization assay format (Molecular Devices Inc.). […] Typically, dose response analyses were performed over concentration ranges from 0.005-100 μM. […] After 30 min incubation to allow binding reagent to bind phosphorylated peptide, fluorescence polarization was measured on a Tecan Saphire^2 plate reader at excitation (470 nm) and emission (530 nm) wavelengths.

MRCKβ [3] = biological target: T2, MRCKβ (Homo sapiens (Human), UniProt Q9Y5S2); assay: MRCKβ kinase assay (IMAP fluorescence polarization); format: biochemical
Description: (§3) MRCKα, MRCKβ, ROCK1 and ROCK2 Kinase Assays

ROCK2 = ROCK2 (Homo sapiens (Human), UniProt O75116); assay: ROCK2 kinase assay (IMAP fluorescence polarization); format: biochemical
Experimental: MRCKα, MRCKβ, ROCK1 and ROCK2 assays were performed using an IMAP fluorescence polarization assay format (Molecular Devices Inc.). 8-12 nM of each kinase (Life Technologies) was incubated for 60 min at room temperature with 100 nM FAM-S6-ribosomal protein derived peptide (synthesized by Alta Biosciences, University of Birmingham UK) in the presence of 1 μM ATP and 0.5 mM MgCl2 in 20 mM Tris buffer (pH 7.4) containing 0.01% Tween-20 and 1 mM DTT (MRCKα and β); or 1 μM ATP, 10 mM MgCl2 in 20 mM Tris buffer (pH 7.5) containing 0.25 mM EGTA 0.01% Triton X-100 and 1 mM DTT (ROCK1 and ROCK2). Typically, dose response analyses were performed over concentration ranges from 0.005-100 μM. Reactions were stopped by adding 2 assay volumes of 0.25% (v/v) IMAP binding reagent in 1×IMAP binding buffer A (Molecular Devices). After 30 min incubation to allow binding reagent to bind phosphorylated peptide, fluorescence polarization was measured on a Tecan Saphire^2 plate reader at excitation (470 nm) and emission (530 nm) wavelengths.

MRCKα = MRCKα (Homo sapiens (Human), UniProt Q5VT25); assay: MRCKα kinase assay (IMAP fluorescence polarization); format: biochemical
Description: as §3

MRCKβ [4] = biological target: T2, MRCKβ; assay: MRCKβ cellular assay (pMLC T18/S19 immunoblot, MDA-MB-231 cells with doxycycline inducible kinase domain); format: cell-based
Experimental: as §1, §2

ROCK1 [5] = biological target: T1, ROCK1; assay: biochemical
Experimental: as §4

[6] = MDA-MB-231 cells, doxycycline inducible kinase domain, 60 minutes, pMLC (T18/S19), read-out: Cellular assay - ROCK1 inhibition MEAN
[7] = 1 μM ATP, read-out: MRCK-B Average Ki
[8] = 1 μM ATP, read-out: ROCK2 Average Ki
[9] = 1 μM ATP, read-out: MRCK-a Average Ki
[10] = MDA-MB-231 cells, doxycycline inducible kinase domain, 60 minutes, pMLC (T18/S19), read-out: Cellular assay - MRCK-b inhibition MEAN

ROCK2, sequence (O75116 whole entry): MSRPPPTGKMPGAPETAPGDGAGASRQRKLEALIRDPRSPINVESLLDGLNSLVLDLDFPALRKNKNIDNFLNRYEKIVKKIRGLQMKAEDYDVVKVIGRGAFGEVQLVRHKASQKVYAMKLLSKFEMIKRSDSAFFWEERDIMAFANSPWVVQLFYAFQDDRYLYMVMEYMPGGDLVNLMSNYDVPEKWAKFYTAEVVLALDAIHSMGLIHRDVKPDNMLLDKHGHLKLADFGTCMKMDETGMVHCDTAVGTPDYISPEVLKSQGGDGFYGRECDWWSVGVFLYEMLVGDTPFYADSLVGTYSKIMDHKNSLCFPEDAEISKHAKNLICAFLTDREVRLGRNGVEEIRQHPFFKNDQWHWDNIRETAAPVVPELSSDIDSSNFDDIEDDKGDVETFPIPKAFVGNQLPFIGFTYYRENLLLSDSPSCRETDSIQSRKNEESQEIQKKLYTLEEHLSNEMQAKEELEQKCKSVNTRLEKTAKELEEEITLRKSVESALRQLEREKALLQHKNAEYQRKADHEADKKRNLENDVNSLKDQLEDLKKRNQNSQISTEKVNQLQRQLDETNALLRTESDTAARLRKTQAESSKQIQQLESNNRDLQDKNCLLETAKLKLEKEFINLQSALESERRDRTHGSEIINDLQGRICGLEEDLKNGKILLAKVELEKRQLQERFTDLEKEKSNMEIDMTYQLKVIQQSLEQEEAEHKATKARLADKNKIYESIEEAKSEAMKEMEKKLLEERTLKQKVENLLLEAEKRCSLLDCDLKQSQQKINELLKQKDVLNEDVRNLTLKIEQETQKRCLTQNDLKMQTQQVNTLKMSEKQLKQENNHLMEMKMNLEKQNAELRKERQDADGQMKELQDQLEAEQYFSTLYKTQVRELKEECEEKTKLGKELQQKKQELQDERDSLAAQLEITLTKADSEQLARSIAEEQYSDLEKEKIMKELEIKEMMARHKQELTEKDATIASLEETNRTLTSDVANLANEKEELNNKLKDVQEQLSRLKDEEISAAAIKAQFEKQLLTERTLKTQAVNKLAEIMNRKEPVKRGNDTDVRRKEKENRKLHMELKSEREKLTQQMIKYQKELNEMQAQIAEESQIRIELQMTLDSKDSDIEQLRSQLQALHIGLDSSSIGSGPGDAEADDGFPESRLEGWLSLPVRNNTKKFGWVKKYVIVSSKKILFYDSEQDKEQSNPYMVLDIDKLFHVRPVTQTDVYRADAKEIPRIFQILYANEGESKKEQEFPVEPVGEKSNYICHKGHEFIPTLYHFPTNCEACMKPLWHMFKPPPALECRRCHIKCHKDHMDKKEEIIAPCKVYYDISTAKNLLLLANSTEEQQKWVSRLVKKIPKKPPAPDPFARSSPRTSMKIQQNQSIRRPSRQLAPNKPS
MRCKα, sequence (Q5VT25 whole entry): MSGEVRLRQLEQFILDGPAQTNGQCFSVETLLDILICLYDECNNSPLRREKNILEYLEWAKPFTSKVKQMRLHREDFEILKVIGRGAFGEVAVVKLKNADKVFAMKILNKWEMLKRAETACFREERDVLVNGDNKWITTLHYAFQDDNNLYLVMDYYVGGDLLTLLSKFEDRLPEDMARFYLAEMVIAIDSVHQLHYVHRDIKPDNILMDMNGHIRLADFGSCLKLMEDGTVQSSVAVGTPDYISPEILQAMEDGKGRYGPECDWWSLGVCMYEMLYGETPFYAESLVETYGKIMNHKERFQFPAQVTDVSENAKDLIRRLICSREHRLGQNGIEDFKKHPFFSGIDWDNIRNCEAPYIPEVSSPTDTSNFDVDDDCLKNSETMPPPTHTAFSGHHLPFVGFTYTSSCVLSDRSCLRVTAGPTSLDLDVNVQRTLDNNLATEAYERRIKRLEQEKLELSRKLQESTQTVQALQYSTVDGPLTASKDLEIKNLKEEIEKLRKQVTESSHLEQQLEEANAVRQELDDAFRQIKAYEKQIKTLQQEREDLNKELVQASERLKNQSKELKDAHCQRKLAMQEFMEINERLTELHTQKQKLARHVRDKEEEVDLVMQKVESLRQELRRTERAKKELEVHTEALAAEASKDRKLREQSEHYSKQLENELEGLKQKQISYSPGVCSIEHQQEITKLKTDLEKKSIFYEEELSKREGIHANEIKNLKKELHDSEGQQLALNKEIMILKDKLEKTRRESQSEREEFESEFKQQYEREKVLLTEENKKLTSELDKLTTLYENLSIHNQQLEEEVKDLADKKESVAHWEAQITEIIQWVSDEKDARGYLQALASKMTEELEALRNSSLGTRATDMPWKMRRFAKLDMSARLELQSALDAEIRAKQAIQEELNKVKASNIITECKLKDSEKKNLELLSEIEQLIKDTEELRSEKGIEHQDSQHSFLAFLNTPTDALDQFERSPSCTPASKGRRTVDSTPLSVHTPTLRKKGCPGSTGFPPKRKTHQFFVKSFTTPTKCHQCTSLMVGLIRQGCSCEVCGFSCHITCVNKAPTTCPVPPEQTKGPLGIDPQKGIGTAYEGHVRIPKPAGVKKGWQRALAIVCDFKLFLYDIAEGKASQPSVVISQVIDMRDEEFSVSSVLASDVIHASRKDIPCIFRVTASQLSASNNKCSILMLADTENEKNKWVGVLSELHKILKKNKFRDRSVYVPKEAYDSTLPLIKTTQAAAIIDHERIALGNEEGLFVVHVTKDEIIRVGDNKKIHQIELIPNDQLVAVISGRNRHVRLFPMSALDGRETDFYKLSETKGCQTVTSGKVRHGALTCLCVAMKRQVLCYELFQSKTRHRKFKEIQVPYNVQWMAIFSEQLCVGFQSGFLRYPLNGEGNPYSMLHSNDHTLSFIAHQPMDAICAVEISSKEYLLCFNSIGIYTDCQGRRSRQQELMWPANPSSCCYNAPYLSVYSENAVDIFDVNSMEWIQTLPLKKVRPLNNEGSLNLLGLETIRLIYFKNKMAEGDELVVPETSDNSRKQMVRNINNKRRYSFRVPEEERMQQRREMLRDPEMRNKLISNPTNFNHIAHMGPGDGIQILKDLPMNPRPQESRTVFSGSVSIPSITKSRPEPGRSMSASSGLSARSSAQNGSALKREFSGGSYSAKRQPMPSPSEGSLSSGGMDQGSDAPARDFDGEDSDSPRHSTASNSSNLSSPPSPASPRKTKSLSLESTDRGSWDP
T1 sequence (Q13464 2-1354 limits assumed): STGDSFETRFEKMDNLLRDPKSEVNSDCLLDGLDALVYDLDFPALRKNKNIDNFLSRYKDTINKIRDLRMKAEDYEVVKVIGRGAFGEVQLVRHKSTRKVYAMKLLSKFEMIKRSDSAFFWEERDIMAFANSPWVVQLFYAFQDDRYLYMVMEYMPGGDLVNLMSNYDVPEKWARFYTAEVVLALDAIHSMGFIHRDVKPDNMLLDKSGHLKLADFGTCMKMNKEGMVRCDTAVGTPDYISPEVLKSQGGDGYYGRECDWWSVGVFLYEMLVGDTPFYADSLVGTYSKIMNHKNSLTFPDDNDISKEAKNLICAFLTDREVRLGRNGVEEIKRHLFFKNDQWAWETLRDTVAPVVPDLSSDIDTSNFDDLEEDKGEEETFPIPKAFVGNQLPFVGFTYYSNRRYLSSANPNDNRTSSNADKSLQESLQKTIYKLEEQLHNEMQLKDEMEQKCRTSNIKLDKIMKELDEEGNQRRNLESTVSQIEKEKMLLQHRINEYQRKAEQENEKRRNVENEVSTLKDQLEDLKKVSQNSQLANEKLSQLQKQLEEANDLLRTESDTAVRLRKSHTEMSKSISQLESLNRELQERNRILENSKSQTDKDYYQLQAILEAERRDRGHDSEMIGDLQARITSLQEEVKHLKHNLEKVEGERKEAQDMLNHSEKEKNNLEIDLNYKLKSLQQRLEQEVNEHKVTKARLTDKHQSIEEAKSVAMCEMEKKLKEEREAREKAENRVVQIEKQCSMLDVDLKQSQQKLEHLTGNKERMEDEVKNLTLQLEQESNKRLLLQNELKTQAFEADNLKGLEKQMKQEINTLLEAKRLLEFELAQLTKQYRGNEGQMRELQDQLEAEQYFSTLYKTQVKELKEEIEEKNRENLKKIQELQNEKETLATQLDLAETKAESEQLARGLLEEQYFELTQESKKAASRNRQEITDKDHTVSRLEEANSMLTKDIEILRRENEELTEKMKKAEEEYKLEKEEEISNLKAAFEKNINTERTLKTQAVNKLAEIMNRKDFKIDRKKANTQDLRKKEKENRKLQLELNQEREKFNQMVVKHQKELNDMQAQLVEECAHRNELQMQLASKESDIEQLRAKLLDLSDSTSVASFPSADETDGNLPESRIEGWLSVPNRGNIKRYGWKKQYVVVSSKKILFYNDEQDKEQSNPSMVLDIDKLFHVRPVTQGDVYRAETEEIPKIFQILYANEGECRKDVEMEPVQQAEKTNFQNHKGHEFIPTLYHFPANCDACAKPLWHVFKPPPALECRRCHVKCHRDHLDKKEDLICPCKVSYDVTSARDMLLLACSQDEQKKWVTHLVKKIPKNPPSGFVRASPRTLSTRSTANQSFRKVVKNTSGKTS

Row | Molecule | IC50 (ROCK1 [1]; [6]) [nM] | Ki (ROCK1 [2]) [nM] | Ki (MRCKβ [3]; [7]) [nM] | Ki (ROCK2; [8]) [nM] | Ki (MRCKα; [9]) [nM] | IC50 (MRCKβ [4]; [10]) [nM] | Ki (ROCK1 [5]) [nM] | Ki (MRCKβ [3]) [nM] | Ki (ROCK2) [nM] | Ki (MRCKα) [nM] | IC50 (MRCKβ [4]) [nM] | IC50 (ROCK1 [1]) [nM]
1 | 3-ethyl-1-[3-(5-methylthiazol-2-yl)-1H-pyrrolo[2,3-b]pyridin-4-yl]piperidin-3-amine [Example E177] | > 30000 | 33.7 | 0.0888 | 96.2 | 0.0822 | 274 |  |  |  |  |  | 
2 | c1cc(N2CCC[C@@]3(CCCCN3)C2)c2c(-c3ncsn3)c[nH]c2n1 [Example E116, 3-[4-[(6S)-1,8-diazaspiro[5.5]undecan-8-yl]-1H-pyrrolo[2,3-b]pyridin-3-yl]-1,2,4-thiadiazole] | > 30000 |  | 0.0124 | 39.4 | 0.0122 | 142 | 85.1 |  |  |  |  | 
3 | c1cc(N2CCC[C@@]3(CCCCN3)C2)c2c(-c3ccsn3)c[nH]c2n1 [Example E120, 3-[4-[(6S)-1,8-diazaspiro[5.5]undecan-8-yl]-1H-pyrrolo[2,3-b]pyridin-3-yl]isothiazole] | 15400 |  | 0.0147 | 4.73 | 0.0049 | 13.3 | 23.8 |  |  |  |  | 
4 | c1ncc(-c2c[nH]c3nccc(N4CCC[C@@]5(CCCCN5)C4)c23)cn1 [Example E122, (6S)-8-(3-pyrimidin-5-yl-1H-pyrrolo[2,3-b]pyridin-4-yl)-1,8-diazaspiro[5.5]undecane] | > 30000 |  | 0.585 | 77.7 | 0.0284 | 101 | 196 |  |  |  |  | 
5 | c1ncc(-c2c[nH]c3nccc(N4CC[C@@]5(CCCCN5)C4)c23)cn1 [Example E126, (5S)-2-(3-pyrimidin-5-yl-1H-pyrrolo[2,3-b]pyridin-4-yl)-2,6-diazaspiro[4.5]decane] | > 30000 | 68.3 | 0.057 | 23.1 | 0.0413 | 1270 |  |  |  |  |  | 
6 | c1cc(N2CCC3(CCCCN3)C2)c2c(-c3ncsn3)c[nH]c2n1 (stereo not shown) [Example E129, 3-[4-(2,6-diazaspiro[4.5]decan-2-yl)-1H-pyrrolo[2,3-b]pyridin-3-yl]-1,2,4-thiadiazole] |  |  |  |  |  |  | 108 | 0.206 | 23.6 | 0.0518 | 729 | 
7 | Cc1cnc(-c2c[nH]c3nccc(N4CC[C@@]5(CCCCN5)C4)c23)s1 [Example E131, 2-[4-[(5S)-2,6-diazaspiro[4.5]decan-2-yl]-1H-pyrrolo[2,3-b]pyridin-3-yl]-5-methyl-thiazole] | > 30000 |  | 0.0601 | 24.8 | 0.021 | 318 | 107 |  |  |  |  | 
8 | c1csc(-c2c[nH]c3nccc(N4CC[C@@]5(CCCCN5)C4)c23)n1 [Example E133, 2-[4-[(5S)-2,6-diazaspiro[4.5]decan-2-yl]-1H-pyrrolo[2,3-b]pyridin-3-yl]thiazole] |  |  |  |  |  |  | 25.9 | 0.03 | 6.41 | 0.0149 | 108 | 
9 | c1csc(-c2c[nH]c3nccc(N4CC[C@@]5(CCCN5)C4)c23)n1 [Example E134, 2-[4-[(5S)-1,7-diazaspiro[4.4]nonan-7-yl]-1H-pyrrolo[2,3-b]pyridin-3-yl]thiazole] |  |  |  |  |  |  | 111 | 0.303 | 30 | 0.19 | 787 | > 30000
10 | c1cc(N2CCC3(CCCN3)C2)c2c(-c3ccsn3)c[nH]c2n1 (stereo not shown) [Example E136, 3-[4-(1,7-diazaspiro[4.4]nonan-7-yl)-1H-pyrrolo[2,3-b]pyridin-3-yl]isothiazole] |  |  |  |  |  |  | 70.7 | 0.12 | 14.2 | 0.207 | 457 | > 30000
11 | c1ccc(-c2c[nH]c3nccc(N4CCC[C@@]5(CCCCN5)C4)c23)nc1 [Example E139, (6S)-8-[3-(2-pyridyl)-1H-pyrrolo[2,3-b]pyridin-4-yl]-1,8-diazaspiro[5.5]undecane] | > 30000 | 99.1 | 0.0391 | 41 | 0.0435 | 107 |  |  |  |  |  | 
12 | Cc1csnc1-c1c[nH]c2nccc(N3CCCC4(CCCCN4)C3)c12 (stereo not shown) [Example E142, 3-[4-(1,8-diazaspiro[5.5]undecan-8-yl)-1H-pyrrolo[2,3-b]pyridin-3-yl]-4-methyl-isothiazole] | > 30000 |  | 0.203 | 33600 | 0.216 | 1210 | 104 |  |  |  |  | 
13 | c1cc(-c2c[nH]c3nccc(N4CCC[C@@]5(CCCCN5)C4)c23)cnn1 [Example E174, (6S)-8-(3-pyridazin-4-yl-1H-pyrrolo[2,3-b]pyridin-4-yl)-1,8-diazaspiro[5.5]undecane] | 2250 |  | 0.0256 |  |  | 50.9 | 405 |  |  |  |  | 
14 | N#Cc1c[nH]c2nccc(N3CCC[C@@]4(CCCCN4)C3)c12 [Example E187, 4-[(6S)-1,8-diazaspiro[5.5]undecan-8-yl]-1H-pyrrolo[2,3-b]pyridine-3-carbonitrile] |  | 152 | 0.179 | 44.2 | 0.249 |  |  |  |  |  | 782 | > 30000
15 | CCN1CCCCC12CCCN(c1ccnc3[nH]cc(C#N)c13)C2 (stereo not shown) [Example E211, 4-(1-ethyl-1,8-diazaspiro[5.5]undecan-8-yl)-1H-pyrrolo[2,3-b]pyridine-3-carbonitrile] |  | 245 | 0.351 | 34.3 | 0.631 |  |  |  |  |  | 952 | > 30000

Continued, in another order:

Row | IC50 (ROCK1 [1]; [6]) [nM] | Ki (ROCK1 [2]) [nM] | Ki (MRCKβ [3]; [7]) [nM] | Ki (ROCK2; [8]) [nM] | Ki (MRCKα; [9]) [nM] | IC50 (MRCKβ [4]; [10]) [nM] | Ki (ROCK1 [5]) [nM] | Molecule | Ki (MRCKβ [3]) [nM] | Ki (ROCK2) [nM] | Ki (MRCKα) [nM] | IC50 (MRCKβ [4]) [nM] | IC50 (ROCK1 [1]) [nM]
16 | > 30000 |  | 0.0539 | 100 | 0.0493 | 150 | 203 | Cc1cnc(-c2c[nH]c3nccc(N4CCC[C@@]5(CCCCN5)C4)c23)s1 [Example E146, 2-[4-[(6S)-1,8-diazaspiro[5.5]undecan-8-yl]-1H-pyrrolo[2,3-b]pyridin-3-yl]-5-methyl-thiazole] |  |  |  |  | 
17 |  |  | 0.106 | 261 | 0.189 | 732 | 861 | Fc1cccnc1-c1c[nH]c2nccc(N3CCCC4(CCCCN4)C3)c12 (stereo not shown) [Example E169, 8-[3-(3-fluoro-2-pyridyl)-1H-pyrrolo[2,3-b]pyridin-4-yl]-1,8-diazaspiro[5.5]undecane] |  |  |  |  | 
18 |  |  | 0.1 | 165 | 0.17 | 612 | 564 | Fc1ccc(-c2c[nH]c3nccc(N4CCCC5(CCCCN5)C4)c23)nc1 (stereo not shown) [Example E170, 8-[3-(5-fluoro-2-pyridyl)-1H-pyrrolo[2,3-b]pyridin-4-yl]-1,8-diazaspiro[5.5]undecane] |  |  |  |  | 
19 |  |  | 0.0648 | 85.2 | 0.0639 | 233 | 207 | Fc1cncc(-c2c[nH]c3nccc(N4CCCC5(CCCCN5)C4)c23)c1 (stereo not shown) [Example E171, 8-[3-(5-fluoro-3-pyridyl)-1H-pyrrolo[2,3-b]pyridin-4-yl]-1,8-diazaspiro[5.5]undecane] |  |  |  |  | 
20 |  |  | 0.0923 | 42 | 0.0934 | 255 | 67.1 | CC1(N)CCCN(c2ccnc3[nH]cc(-c4nccs4)c23)C1 (stereo not shown) [Example E176, 3-methyl-1-(3-thiazol-2-yl-1H-pyrrolo[2,3-b]pyridin-4-yl)piperidin-3-amine] |  |  |  |  | 
21 | > 30000 | 20.6 | 0.0277 | 4.19 | 0.0189 | 138 |  | CN1CCCC[C@@]12CCCN(c1ccnc3[nH]cc(-c4ccncn4)c13)C2 [Example E206, (6S)-1-methyl-8-(3-pyrimidin-4-yl-1H-pyrrolo[2,3-b]pyridin-4-yl)-1,8-diazaspiro[5.5]undecane] |  |  |  |  | 
22 | > 30000 | 20 | 0.0395 | 8.34 | 0.0275 | 170 |  | CCN1CCCC[C@@]12CCCN(c1ccnc3[nH]cc(-c4ccncn4)c13)C2 [Example E207, (6S)-1-ethyl-8-(3-pyrimidin-4-yl-1H-pyrrolo[2,3-b]pyridin-4-yl)-1,8-diazaspiro[5.5]undecane] |  |  |  |  | 
23 | > 30000 |  | 0.0389 | 29.9 | 0.101 | 109 | 127 | CCN1CCCCC12CCCN(c1ccnc3[nH]cc(-c4nccs4)c13)C2 (stereo not shown) [Example E209, 2-[4-(1-ethyl-1,8-diazaspiro[5.5]undecan-8-yl)-1H-pyrrolo[2,3-b]pyridin-3-yl]thiazole] |  |  |  |  | 
24 | > 30000 |  | 0.0634 | 152 | 0.127 | 701 | 50200 | CCN1CCCCC12CCCN(c1ccnc3[nH]cc(-c4ncc(C)s4)c13)C2 (stereo not shown) [Example E210, 2-[4-(1-ethyl-1,8-diazaspiro[5.5]undecan-8-yl)-1H-pyrrolo[2,3-b]pyridin-3-yl]-5-methyl-thiazole] |  |  |  |  | 

Source: patent publication US11447505B1, “Pyrrolo[2,3-b]pyridine compounds and their use in the treatment of cancer” (priority 2017, dated 2022)
